Test results reported in patent US9593305B2, “Differentiation of pluripotent stem cells” (Janssen Biotech, Inc., priority 2008, dated 2017).

Test system: H1 human embryonic stem cells
Assay: Secondary assay: panel of compounds with growth factor combinations and muscimol, no activin A (Example 6, Table 5)
Type: cell-based
Settings: for Cell Number, % of positive control / Cell Number, Average Total Cell Number / Sox17 Expression, % of positive control / Sox17 Expression, Average Total Intensity: no AA (with Wnt3a)
Experimental: Clusters of H1 human embryonic stem cells were grown on reduced growth factor […]™ (Invitrogen; Cat #356231)-coated tissue culture plastic. Cells were passaged using collagenase (Invitrogen; Cat #17104-019) treatment and gentle scraping, washed to remove residual enzyme, and plated with even dispersal at a ratio of 1:1 (surface area) on reduced growth factor […]™-coated 96-well black plates (Packard ViewPlates; PerkinElmer; Cat #6005182) using volumes of 100 μl/well. Cells were allowed to attach as clusters and then recover log phase growth over a 1 to 3 day period, feeding daily with MEF-conditioned medium supplemented with 8 ng/ml bFGF (R&D Systems; Cat #233-FB). Plates were maintained at 37° C., 5% CO2 in a humidified box throughout the duration of the assay. Stocks of growth factors purchased from R&D Systems were EGF (Cat #236-EG), FGF4 (Cat #235-F4), PDGF-A (Cat #221-AA), PDGF-D (Cat #1159-SB), PDGF-A/B (Cat #222-AB), and VEGF (Cat #293-VE). […] All growth factors were solubilized in PBS with 0.1% BSA (Sigma; Cat #A7888) and stored frozen at −80° C. […] Cat #D2650) and stored frozen at −80° C. Compounds were available as 5 mM stocks in 96-well plate format, solubilized in 100% DMSO and stored at −80° C. Compounds were further diluted to an intermediate concentration of 0.2 mM in 50 mM HEPES (Invitrogen; Cat #15630-080), 20% DMSO and stored at 4° C. All growth factors and inhibitors were prepared in a deep well, 96-well polypropylene plate, diluted to 5× intermediate stocks in DMEM:F12 base medium at the beginning of assay and stored at 4° C. A secondary screening assay was conducted, testing in triplicate and feeding on alternate days over the four-day assay timeframe. Assays were initiated by aspirating culture medium from each well followed by three washes in PBS to remove residual growth factors and serum. Test volumes of 80 μl per well were added back containing DMEM:F12 base medium (Invitrogen; Cat #11330-032) supplemented with 0.625% FCS (HyClone; […] All remaining growth factors were tested at a final assay concentration of 50 ng/ml (EGF, FGF4, PDGF-A, PDGF-A/B, VEGF). […] At the conclusion of four-days of culture, assay plates were washed twice with PBS, fixed with 4% paraformaldehyde (Alexis Biochemical; Cat #ALX-350-011) at room temperature for 20 minutes, then washed three times with PBS and permeabilized with 0.5% Triton X-100 (Sigma; Cat #T8760-2) for 20 minutes at room temperature. Cells were washed again three times with PBS and blocked with 4% chicken serum (Invitrogen; Cat #16110082) in PBS for 30 minutes at room temperature. Primary antibody (goat anti-human SOX17; R&D Systems; cat #AF1924) was diluted 1:100 in 4% chicken serum and added to each well for one hour at room temperature. Alexa Fluor 488 conjugated secondary antibody (chicken anti-goat IgG; Molecular Probes; Cat #AZ1467) was diluted 1:200 in PBS and added to each sample well after washing three times with PBS. To counterstain nuclei, 4 μg/ml Hoechst 33342 (Invitrogen; Cat #H3570) was added for ten minutes at room temperature. Plates were washed once with PBS and left in 100 μl/well PBS for imaging. Imaging was performed using an IN Cell Analyzer 1000 (GE Healthcare) utilizing the 51008bs dichroic for cells stained with Hoechst 33342 and Alexa Fluor 488. Exposure times were optimized from positive control wells and from untreated negative control wells stained with secondary antibody alone. Images from 15 fields per well were acquired to compensate for any cell loss during the bioassay and subsequent staining procedures. […] Segmentation for the nuclei was determined based on grayscale levels (baseline range 100-300) and nuclear size. Averages and standard deviations were calculated for each replicate data set. Total SOX17 protein expression was reported as total intensity or integrated intensity, defined as total fluorescence of the cell multiplied by the area of the cell. […]

[1] = EGF + FGF4 + PDGF-AB + Muscimol

O=C1CCN2CCN(CC2)Cc2cc(Cl)cc(c2)Nc2ncnc(n2)-c2cncc(c2)CCCN1 [Compound 34, 5-Chloro-1,8,10,12,16,22,26,32-octaazapentacyclo[24.2.2.1˜3.7˜0.1˜9,13˜0.1˜14.18˜]tritriaconta-3(33), 4,6,9(32), 10,12,14(31), 15,17-nonaen-23-one]
response with growth factors (cell numbers and SOX17 expression) (2.5 μM, all growth factor combinations tested, no activin A): significant synergistic responses with all growth factors tested | Cell Number, % of positive control (EGF): 124.89% | Cell Number, Average Total Cell Number (EGF): 13062 | Sox17 Expression, % of positive control (EGF): 17.39% | Sox17 Expression, Average Total Intensity (EGF): 2.78E+07 | Cell Number, % of positive control (EGF + FGF4): 125.58% | Cell Number, Average Total Cell Number (EGF + FGF4): 13133 | Sox17 Expression, % of positive control (EGF + FGF4): 76.85% | Sox17 Expression, Average Total Intensity (EGF + FGF4): 1.23E+08 | Cell Number, % of positive control (EGF + FGF4 + PDGF-A + Muscimol): 116.72% | Cell Number, Average Total Cell Number (EGF + FGF4 + PDGF-A + Muscimol): 12208 | Sox17 Expression, % of positive control (EGF + FGF4 + PDGF-A + Muscimol): 34.83% | Sox17 Expression, Average Total Intensity (EGF + FGF4 + PDGF-A + Muscimol): 5.56E+07 | Cell Number, % of positive control (EGF + FGF4 + PDGF-A + VEGF): 123.36% | Cell Number, Average Total Cell Number (EGF + FGF4 + PDGF-A + VEGF): 12901 | Sox17 Expression, % of positive control (EGF + FGF4 + PDGF-A + VEGF): 31.35% | Sox17 Expression, Average Total Intensity (EGF + FGF4 + PDGF-A + VEGF): 5.01E+07 | Cell Number, % of positive control (EGF + FGF4 + PDGF-AB): 119.83% | Cell Number, Average Total Cell Number (EGF + FGF4 + PDGF-AB): 12532 | Sox17 Expression, % of positive control (EGF + FGF4 + PDGF-AB): 68.41% | Sox17 Expression, Average Total Intensity (EGF + FGF4 + PDGF-AB): 1.09E+08 | Cell Number, % of positive control [1]: 151.18% | Cell Number, Average Total Cell Number [1]: 15811 | Sox17 Expression, % of positive control [1]: 4.32% | Sox17 Expression, Average Total Intensity [1]: 6.90E+06 | Cell Number, % of positive control (EGF + PDGF-A + VEGF): 112.84% | Cell Number, Average Total Cell Number (EGF + PDGF-A + VEGF): 11801 | Sox17 Expression, % of positive control (EGF + PDGF-A + VEGF): 2.53% | Sox17 Expression, Average Total Intensity (EGF + PDGF-A + VEGF): 4.04E+06 | Cell Number, % of positive control (FGF4 + PDGF-A + VEGF): 145.93% | Cell Number, Average Total Cell Number (FGF4 + PDGF-A + VEGF): 15262 | Sox17 Expression, % of positive control (FGF4 + PDGF-A + VEGF): 7.18% | Sox17 Expression, Average Total Intensity (FGF4 + PDGF-A + VEGF): 1.15E+07

CCN1CC(=O)NCCCc2cncc(c2)-c2ncnc(n2)Nc2cc(Cl)cc(c2)C1 [Compound 35, 10-Chloro-14-ethyl-3,5,7,14,17,23,27-heptaazatetracyclo[19.3.1.1˜2,6˜0.1˜8,12]Theptacosa-1(25), 2(27), 3,5,8(26), 9,11,21,23-nonaen-16-one]
Cell Number, % of positive control (EGF): 228.40% | Cell Number, Average Total Cell Number (EGF): 23887 | Sox17 Expression, % of positive control (EGF): −6.32% | Sox17 Expression, Average Total Intensity (EGF): −1.01E+07 | Cell Number, % of positive control (EGF + FGF4): 203.36% | Cell Number, Average Total Cell Number (EGF + FGF4): 21268 | Sox17 Expression, % of positive control (EGF + FGF4): 0.85% | Sox17 Expression, Average Total Intensity (EGF + FGF4): 1.36E+06 | Cell Number, % of positive control (EGF + FGF4 + PDGF-A + Muscimol): 147.80% | Cell Number, Average Total Cell Number (EGF + FGF4 + PDGF-A + Muscimol): 15457 | Sox17 Expression, % of positive control (EGF + FGF4 + PDGF-A + Muscimol): 43.15% | Sox17 Expression, Average Total Intensity (EGF + FGF4 + PDGF-A + Muscimol): 6.89E+07 | Cell Number, % of positive control (EGF + FGF4 + PDGF-A + VEGF): 154.25% | Cell Number, Average Total Cell Number (EGF + FGF4 + PDGF-A + VEGF): 16132 | Sox17 Expression, % of positive control (EGF + FGF4 + PDGF-A + VEGF): 57.04% | Sox17 Expression, Average Total Intensity (EGF + FGF4 + PDGF-A + VEGF): 9.11E+07 | Cell Number, % of positive control (EGF + FGF4 + PDGF-AB): 168.39% | Cell Number, Average Total Cell Number (EGF + FGF4 + PDGF-AB): 17611 | Sox17 Expression, % of positive control (EGF + FGF4 + PDGF-AB): 8.03% | Sox17 Expression, Average Total Intensity (EGF + FGF4 + PDGF-AB): 1.28E+07 | Cell Number, % of positive control [1]: 171.62% | Cell Number, Average Total Cell Number [1]: 17949 | Sox17 Expression, % of positive control [1]: 0.96% | Sox17 Expression, Average Total Intensity [1]: 1.54E+06 | Cell Number, % of positive control (EGF + PDGF-A + VEGF): 222.23% | Cell Number, Average Total Cell Number (EGF + PDGF-A + VEGF): 23242 | Sox17 Expression, % of positive control (EGF + PDGF-A + VEGF): 7.72% | Sox17 Expression, Average Total Intensity (EGF + PDGF-A + VEGF): 1.23E+07 | Cell Number, % of positive control (FGF4 + PDGF-A + VEGF): 153.63% | Cell Number, Average Total Cell Number (FGF4 + PDGF-A + VEGF): 16068 | Sox17 Expression, % of positive control (FGF4 + PDGF-A + VEGF): 24.57% | Sox17 Expression, Average Total Intensity (FGF4 + PDGF-A + VEGF): 3.92E+07

O=C1NCCCc2cncc(c2)-c2ncnc(n2)Nc2cc(Cl)cc(c2)CN2CCCC1C2 (stereo not shown) [Compound 37, 10-Chloro-3,5,7,14,20,26,31-heptaazapentacyclo[22.3.1.1˜2,6˜0.1˜8,12˜0.1˜14,18˜]hentriaconta-1(28), 2(31), 3,5,8(30), 9,11,24,26-nonaen-19-one]
Cell Number, % of positive control (EGF): 76.17% | Cell Number, Average Total Cell Number (EGF): 7966 | Sox17 Expression, % of positive control (EGF): −7.42% | Sox17 Expression, Average Total Intensity (EGF): −1.19E+07 | Cell Number, % of positive control (EGF + FGF4): 66.28% | Cell Number, Average Total Cell Number (EGF + FGF4): 6932 | Sox17 Expression, % of positive control (EGF + FGF4): −2.89% | Sox17 Expression, Average Total Intensity (EGF + FGF4): −4.62E+06 | Cell Number, % of positive control (EGF + FGF4 + PDGF-A + Muscimol): 55.66% | Cell Number, Average Total Cell Number (EGF + FGF4 + PDGF-A + Muscimol): 5821 | Sox17 Expression, % of positive control (EGF + FGF4 + PDGF-A + Muscimol): −7.64% | Sox17 Expression, Average Total Intensity (EGF + FGF4 + PDGF-A + Muscimol): −1.22E+07 | Cell Number, % of positive control (EGF + FGF4 + PDGF-A + VEGF): 83.93% | Cell Number, Average Total Cell Number (EGF + FGF4 + PDGF-A + VEGF): 8778 | Sox17 Expression, % of positive control (EGF + FGF4 + PDGF-A + VEGF): 0.09% | Sox17 Expression, Average Total Intensity (EGF + FGF4 + PDGF-A + VEGF): 1.39E+05 | Cell Number, % of positive control (EGF + FGF4 + PDGF-AB): 71.46% | Cell Number, Average Total Cell Number (EGF + FGF4 + PDGF-AB): 7473 | Sox17 Expression, % of positive control (EGF + FGF4 + PDGF-AB): −1.63% | Sox17 Expression, Average Total Intensity (EGF + FGF4 + PDGF-AB): −2.61E+06 | Cell Number, % of positive control [1]: 75.67% | Cell Number, Average Total Cell Number [1]: 7914 | Sox17 Expression, % of positive control [1]: −1.20% | Sox17 Expression, Average Total Intensity [1]: −1.91E+06 | Cell Number, % of positive control (EGF + PDGF-A + VEGF): 123.88% | Cell Number, Average Total Cell Number (EGF + PDGF-A + VEGF): 12956 | Sox17 Expression, % of positive control (EGF + PDGF-A + VEGF): −7.82% | Sox17 Expression, Average Total Intensity (EGF + PDGF-A + VEGF): −1.25E+07 | Cell Number, % of positive control (FGF4 + PDGF-A + VEGF): 64.36% | Cell Number, Average Total Cell Number (FGF4 + PDGF-A + VEGF): 6731 | Sox17 Expression, % of positive control (FGF4 + PDGF-A + VEGF): −6.89% | Sox17 Expression, Average Total Intensity (FGF4 + PDGF-A + VEGF): −1.10E+07
